# Like-named read-outs stand apart in the source and are kept apart here. Numbered stars: 1 amine (or outer) side, 2 acyl side, 3 side chain; on linkers, the order of the positions; unused ones are H or OH. Bridge positions count the residues as written; N and C are the ends. Square brackets hold non-standard residues; d marks the D form. Peptide text beside a SMILES is read from it. * marks the point of attachment. C20 diacid = O=C(O)CCCCCCCCCCCCCCCCCCC(=O)*; γGlu = O=C(O)[C@H](CCC(=O)[*:2])N[*:1]; NMeI = CC[C@H](C)[C@H](NC)C(=O)O; Dap = NC[C@H](N)C(=O)O; Sar = CNCC(=O)O
# What was measured:
# [1] = Solubility assessment (turbidity absorbance at 325 nm); assay type: physicochemical; conditions: stock 2 mg/ml diluted 1:1, ambient temperature (typically 25°C), n=1; for Solubility, Acetate buffer pH 4: 100 mM acetate buffer pH 4.0; for Solubility, Acetate buffer pH 5: 100 mM acetate buffer pH 5.0; for Solubility, Histidine buffer pH 6: 100 mM histidine buffer pH 6.0; for Solubility, Histidine buffer pH 7: 100 mM histidine buffer pH 7.0; for Solubility, Phosphate buffer pH 6: 100 mM phosphate buffer pH 6.0; for Solubility, Phosphate buffer pH 7: 100 mM phosphate buffer pH 7.0; for Solubility, Phosphate buffer pH 7.5: 100 mM phosphate buffer pH7.5
# Summary of the method: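 Read-out: turbidity as absorbance at 325 nm (280 nm also read), single samples, ambient temperature of typically 25°C. Samples were a 1:1 mix of 2 mg/ml stock (water, pH 2.5) with 100 mM acetate, histidine or phosphate buffers spanning pH 4.0–7.5. Cut-off: A325 ≤ 0.02 indicates ≥ 1 mg/ml.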
# [2] = target: T1, human calcitonin receptor (hCTR2) (Homo sapiens, UniProt P30988); test: hCTR2 assay: induction of cAMP (AlphaScreen cAMP Assay kit) in COS7 cells expressing hCTR2; assay type: cell-based
# T1 construct: expressed in transfected cells
# T1 sequence (P30988 25-474): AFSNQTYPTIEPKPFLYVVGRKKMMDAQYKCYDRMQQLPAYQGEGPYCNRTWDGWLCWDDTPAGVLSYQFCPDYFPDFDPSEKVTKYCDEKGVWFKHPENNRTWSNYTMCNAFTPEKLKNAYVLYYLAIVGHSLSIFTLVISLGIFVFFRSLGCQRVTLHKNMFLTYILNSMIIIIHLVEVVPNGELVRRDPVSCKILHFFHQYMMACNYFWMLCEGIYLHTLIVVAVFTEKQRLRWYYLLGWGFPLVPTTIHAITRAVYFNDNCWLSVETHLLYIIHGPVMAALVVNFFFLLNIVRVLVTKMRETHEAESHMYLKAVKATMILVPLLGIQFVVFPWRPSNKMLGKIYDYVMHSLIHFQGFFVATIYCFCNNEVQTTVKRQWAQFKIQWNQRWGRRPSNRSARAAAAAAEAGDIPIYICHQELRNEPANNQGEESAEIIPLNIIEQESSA
# Summary of the method: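 cAMP read-out by AlphaScreen after cell lysis; EC50 and % efficacy vs pramlintide from 4-parameter logistic fitting. Agonist stimulation: hCTR2-COS7 stable cells, 15 min, 37° C, 100 µM IBMX, 0.1% casein, Tyrode/HEPES pH 7.4.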
# [3] = cAMP induction in COS7 cells expressing hCTR2, average of a minimum of 3 determinations, read-out: hCTR2 EC50
Compound,"Solubility, Acetate buffer pH 4 [1]","Solubility, Acetate buffer pH 5 [1]","Solubility, Histidine buffer pH 6 [1]","Solubility, Histidine buffer pH 7 [1]","Solubility, Phosphate buffer pH 6 [1]","Solubility, Phosphate buffer pH 7 [1]","Solubility, Phosphate buffer pH 7.5 [1]","EC50 [2, 3] [nM]",EC50 [2] [nM]
"CC[C@H](C)[C@@H](C(=O)N[C@@H](CC(C)C)C(=O)N[C@@H](CO)C(=O)N[C@@H](CO)C(=O)N[C@H](C(=O)N[C@@H](CC(N)=O)C(=O)N[C@H](C(=O)NCC(=O)N[C@@H](CO)C(=O)N[C@@H](CC(N)=O)C(=O)N[C@H](C(=O)N1CCC[C@H]1C(N)=O)[C@@H](C)O)C(C)C)[C@@H](C)O)N(C)C(=O)CN(C)C(=O)[C@H](Cc1ccccc1)NC(=O)[C@H](CC(N)=O)NC(=O)[C@H](CC(N)=O)NC(=O)[C@H](CO)NC(=O)[C@H](CO)NC(=O)[C@H](Cc1c[nH]cn1)NC(=O)[C@H](Cc1c[nH]cn1)NC(=O)[C@H](CC(C)C)NC(=O)[C@H](Cc1ccccc1)NC(=O)[C@H](CCC(=O)O)NC(=O)[C@H](C)NC(=O)[C@H](CC(C)C)NC(=O)[C@H](CCCNC(=N)N)NC(=O)[C@H](CCC(N)=O)NC(=O)[C@@H](NC(=O)[C@H](C)NC(=O)[C@@H]1CSSC[C@H](NC(=O)[C@H](CN)NC(=O)CC[C@H](NC(=O)CCCCCCCCCCCCCCCCCCC(=O)O)C(=O)O)C(=O)N[C@@H](CC(N)=O)C(=O)N[C@@H]([C@@H](C)O)C(=O)N[C@@H](C)C(=O)N[C@@H]([C@@H](C)O)C(=O)N1)[C@@H](C)O [Compound 69, [19CD]-isoGlu-Dap-C()NTATC()ATQRLAEFLHHSSNNF-Gly(Me)-Ile(Me)-LSSTNVGSNTP-NH2] ({C20 diacid-γGlu}-[Dap]CNTATCATQRLAEFLHHSSNNF[Sar][NMeI]LSSTNVGSNTP-NH2; disulfide 2-7)",SS (SS indicates solubility ≥ 1mg/ml),SS (SS indicates solubility ≥ 1mg/ml),SS (SS indicates solubility ≥ 1mg/ml),SS (SS indicates solubility ≥ 1mg/ml),SS (SS indicates solubility ≥ 1mg/ml),SS (SS indicates solubility ≥ 1mg/ml),SS (SS indicates solubility ≥ 1mg/ml),0.24,
"CC[C@H](C)[C@@H](C(=O)N[C@@H](CC(C)C)C(=O)N[C@@H](CO)C(=O)N[C@H](C(=O)N[C@@H](CC(N)=O)C(=O)N[C@H](C(=O)NCC(=O)N[C@@H](CO)C(=O)N[C@@H](CC(N)=O)C(=O)N[C@H](C(=O)N1CCC[C@H]1C(N)=O)[C@@H](C)O)C(C)C)[C@@H](C)O)N(C)C(=O)[C@H](C)NC(=O)CN(C)C(=O)[C@H](Cc1ccccc1)NC(=O)[C@H](CC(N)=O)NC(=O)[C@H](CC(N)=O)NC(=O)[C@H](CO)NC(=O)[C@H](CO)NC(=O)[C@H](Cc1c[nH]cn1)NC(=O)[C@H](Cc1c[nH]cn1)NC(=O)[C@H](CC(C)C)NC(=O)[C@H](Cc1ccccc1)NC(=O)[C@H](CCC(=O)O)NC(=O)[C@H](C)NC(=O)[C@H](CC(C)C)NC(=O)[C@H](CCCNC(=N)N)NC(=O)[C@H](CCC(N)=O)NC(=O)[C@@H](NC(=O)[C@H](C)NC(=O)[C@@H]1CSSC[C@H](NC(=O)[C@H](CCCNC(=N)N)NC(=O)CC[C@H](NC(=O)CCCCCCCCCCCCCCCCCCC(=O)O)C(=O)O)C(=O)N[C@@H](CC(N)=O)C(=O)N[C@@H]([C@@H](C)O)C(=O)N[C@@H](C)C(=O)N[C@@H]([C@@H](C)O)C(=O)N1)[C@@H](C)O [Compound 25, [19CD]-isoGlu-RC()NTATC()ATQRLAEFLHHSSNNF-Gly(Me)-A-Ile(Me)-LSTNVGSNTP-NH2] ({C20 diacid-γGlu}-RCNTATCATQRLAEFLHHSSNNF[Sar]A[NMeI]LSTNVGSNTP-NH2; disulfide 2-7)",SS (SS indicates solubility ≥ 1mg/ml),SS (SS indicates solubility ≥ 1mg/ml),SS (SS indicates solubility ≥ 1mg/ml),SS (SS indicates solubility ≥ 1mg/ml),SS (SS indicates solubility ≥ 1mg/ml),SS (SS indicates solubility ≥ 1mg/ml),SS (SS indicates solubility ≥ 1mg/ml),,0.1
"CC[C@H](C)[C@@H](C(=O)N[C@@H](CC(C)C)C(=O)N[C@@H](CO)C(=O)N[C@@H](CO)C(=O)N[C@H](C(=O)N[C@@H](CC(N)=O)C(=O)N[C@H](C(=O)NCC(=O)N[C@@H](CO)C(=O)N[C@@H](CC(N)=O)C(=O)N[C@H](C(=O)N1CCC[C@H]1C(N)=O)[C@@H](C)O)C(C)C)[C@@H](C)O)N(C)C(=O)CN(C)C(=O)[C@H](Cc1ccccc1)NC(=O)[C@H](CC(N)=O)NC(=O)[C@H](CO)NC(=O)[C@H](CO)NC(=O)[C@H](Cc1c[nH]cn1)NC(=O)[C@H](Cc1c[nH]cn1)NC(=O)[C@H](CC(C)C)NC(=O)[C@H](Cc1ccccc1)NC(=O)[C@H](CCC(=O)O)NC(=O)[C@H](C)NC(=O)[C@H](CC(C)C)NC(=O)[C@H](CCCNC(=N)N)NC(=O)[C@H](CCC(N)=O)NC(=O)[C@@H](NC(=O)[C@H](C)NC(=O)[C@@H]1CSSC[C@H](NC(=O)[C@H](CCCNC(=N)N)NC(=O)CC[C@H](NC(=O)CCCCCCCCCCCCCCCCCCC(=O)O)C(=O)O)C(=O)N[C@@H](CC(N)=O)C(=O)N[C@@H]([C@@H](C)O)C(=O)N[C@@H](C)C(=O)N[C@@H]([C@@H](C)O)C(=O)N1)[C@@H](C)O [Compound 38, [19CD]-isoGlu-RC()NTATC()ATQRLAEFLHHSSNF-Gly(Me)-Ile(Me)-LSSTNVGSNTP-NH2] ({C20 diacid-γGlu}-RCNTATCATQRLAEFLHHSSNF[Sar][NMeI]LSSTNVGSNTP-NH2; disulfide 2-7)",II (II indicates solubility ≤ 1 mg/ml),II (II indicates solubility ≤ 1 mg/ml),II (II indicates solubility ≤ 1 mg/ml),II (II indicates solubility ≤ 1 mg/ml),II (II indicates solubility ≤ 1 mg/ml),II (II indicates solubility ≤ 1 mg/ml),II (II indicates solubility ≤ 1 mg/ml),,0.16
"CC[C@H](C)[C@@H](C(=O)N[C@@H](CC(C)C)C(=O)N[C@H](CO)C(=O)N[C@@H](CO)C(=O)N[C@H](C(=O)N[C@@H](CC(N)=O)C(=O)N[C@H](C(=O)NCC(=O)N[C@@H](CO)C(=O)N[C@@H](CC(N)=O)C(=O)N[C@H](C(=O)N1CCC[C@H]1C(N)=O)[C@@H](C)O)C(C)C)[C@@H](C)O)N(C)C(=O)CN(C)C(=O)[C@H](Cc1ccccc1)NC(=O)[C@H](CC(N)=O)NC(=O)[C@H](CC(N)=O)NC(=O)[C@H](CO)NC(=O)[C@H](CO)NC(=O)[C@H](Cc1c[nH]cn1)NC(=O)[C@H](Cc1c[nH]cn1)NC(=O)[C@H](CC(C)C)NC(=O)[C@H](Cc1ccccc1)NC(=O)[C@H](CCC(=O)O)NC(=O)[C@H](C)NC(=O)[C@H](CC(C)C)NC(=O)[C@H](CCCNC(=N)N)NC(=O)[C@H](CCC(N)=O)NC(=O)[C@@H](NC(=O)[C@H](C)NC(=O)[C@@H]1CSSC[C@H](NC(=O)[C@H](CCCNC(=N)N)NC(=O)CC[C@H](NC(=O)CCCCCCCCCCCCCCCCCCC(=O)O)C(=O)O)C(=O)N[C@@H](CC(N)=O)C(=O)N[C@@H]([C@@H](C)O)C(=O)N[C@@H](C)C(=O)N[C@@H]([C@@H](C)O)C(=O)N1)[C@@H](C)O [Compound 24, [19CD]-isoGlu-RC()NTATC()ATQRLAEFLHHSSNNF-Gly(Me)-Ile(Me)-L-DSer-STNVGSNTP-NH2] ({C20 diacid-γGlu}-RCNTATCATQRLAEFLHHSSNNF[Sar][NMeI]L[dS]STNVGSNTP-NH2; disulfide 2-7)",SS (SS indicates solubility ≥ 1mg/ml),SS (SS indicates solubility ≥ 1mg/ml),SS (SS indicates solubility ≥ 1mg/ml),SS (SS indicates solubility ≥ 1mg/ml),SS (SS indicates solubility ≥ 1mg/ml),SS (SS indicates solubility ≥ 1mg/ml),SS (SS indicates solubility ≥ 1mg/ml),0.13,

# From patent EP3046573B1, “AMYLIN ANALOGUES” (Zealand Pharma A/S, priority 2013, dated 2015)
